Structures can show the parent of a compound that is named as a salt.
Key:
[1] = S(+)-Ibuprofen plasma concentrations and bioavailability parameters after single oral dose, cross-over (Examples 6-10, HPLC)
Experimental: Each subject was apparently healthy, especially as lap as the Renal, hepatic and hematopoietic functions were concerned.
For the trial, a cross-over design was adopted: each subject received both preparations in two treatment sessions carried out in two different weeks randomizing the order of the administration.
Further, samples of venous blood were withdrawn at 5, 10, 15, 30, 45, 60, 90, 120, 240 and 480 minutes after the treatment. Plasma was then prepared by centrifugation and preserved at -20° C. until the analysis.
The analytical determination of the active ingredient in the plasma samples was carried out by HPLC method as described hereinafter. Chromatographic conditions:
Apparatus: JASCO BIP-1 with U.V. detector UVI DEC-100 v
Column: Chiral AGP, 100×4.0 mm, 5 μm (Chron Tech) with a precolumn Chiral AGP 10×3.0 mm (Chron Tech) […]
The following parameters were calculated:
the area under curve of S(+)-Ibuprofen plasma concentration from time "zero" to "infinite" (AUCtot) was calculated by the following formula: AUCtot =AUCo→480 +AUC480→- wherein AUC480- =concentration at 480 minutes/Ke. and Ke =elimination constant
mean peak time (tmax), expressed as minutes, was obtained from the average of each peak time
the mean peak of maximum plasma concentration (Cmax), expressed as μg/ml, was calculated by the average of each concentration peak value.

[2] = in words, versus Ibuprofen (and, EP 424028, Ibuprofen salts and S(+)-Ibuprofen); cited from earlier work

| SMILES | increase of S(+)-Ibuprofen maximum plasma concentration over equivalent Ibuprofen salt composition ([1]; 400 mg or 300 mg of S(+)-Ibuprofen versus 800 mg or 600 mg of Ibuprofen, oral) | S(+)-Ibuprofen maximum plasma concentration (Cmax) compared with equivalent racemic Ibuprofen treatment ([1]; in words, versus reference treatment) | analgesic effect (onset and duration) [2] |
| --- | --- | --- | --- |
| CC(C)Cc1ccc([C@H](C)C(=O)O)cc1 [S(+)-Ibuprofen arginate, salt of S(+)-Ibuprofen with L-arginine] | 15-20% | substantially equal |  |
| CC(C)Cc1ccc([C@H](C)C(=O)O)cc1 [S(+)-Ibuprofen, (S)-enantiomer of 2-(4-isobutylphenyl)propionic acid] |  |  | faster, and consequently a longer, analgesic effect than Ibuprofen |

Reference: patent US5510385A, “Pharmaceutical compositions containing the salts of S(+)-2-(4-isobutylphenyl)propionic acid with basic aminoacids” (priority 1993, dated 1996)
